Patent US9381174B2, “Composition and method for exterminating animal parasite” (Mitsui Chemicals Agro, Inc., priority 2012, dated 2016)

test system: Ctenocephalides felis; experiment: Insecticidal Test for Ctenocephalides felis (treated filter paper contact); type: in vivo; details: 50 μg/cm^2 on filter paper; emerged adult fleas; 72 hours of exposure; dead including moribund; in triplicate
Experimental: 0.2 mL of an acetone solution was added dropwise to a round filter paper having a diameter of 4.0 cm that were grasped with tweezers so that each of the compounds was included in an amount of 50 μg/cm^2. After the addition, the filter paper was dried at room temperature for 24 hours for use in the test.
Three 200 mL vials were used per compound. The filter paper treated with a test agent was placed tightly into a lid of the vials so that fleas might be contacted with the paper.
About 20 emerged adult fleas were added to each of the 200 mL vials using an aspirator. Then immediately, the vial was sealed with the lid into which the filter paper that was treated with the agent was tightly placed. It was examined if the fleas that were already dead were added. In a case in which dead fleas were found, the number of the dead fleas was subtracted from the total number.
The vials were turned upside down so that the fleas were always contacted with the filter paper. After 24, 48, and 72 hours of the exposure, the conditions of the fleas were examined and classified into “alive” and “dead (including a moribund condition)” to determine the death rates (in triplicate). The death rates after 72 hours are illustrated in Table 8.
The death rates were calculated as follows: Death Rate (%)=(Number of Dead Fleas including Moribund Fleas)/Total Number of Fleas×100

Compound | Death Rate after 72 hours (%)
CCN(C)C(=O)C(=O)Nc1cccc(C(=O)Nc2c(Br)cc(C(F)(C(F)(F)F)C(F)(F)F)cc2OC(F)F)c1 [Compound No. 5-15] | 80.0%
CN(CCF)C(=O)C(=O)Nc1cccc(C(=O)Nc2c(Br)cc(C(F)(C(F)(F)F)C(F)(F)F)cc2C(F)(F)F)c1F [Compound No. 6-1, 2-fluoro-3-[N-(2-fluoroethyl)-N-methylaminoxalylamino]-N-[2-bromo-4-heptafluoroisopropyl-6-(trifluoromethyl)phenyl]benzamide] | 100%
CN(CCF)C(=O)C(=O)Nc1cccc(C(=O)Nc2c(I)cc(C(F)(C(F)(F)F)C(F)(F)F)cc2C(F)(F)F)c1F [Compound No. 6-2, 2-fluoro-3-[N-(2-fluoroethyl)-N-methylaminoxalylamino]-N-[2-iodo-4-heptafluoroisopropyl-6-(trifluoromethyl)phenyl]benzamide] | 100%

test system: Haemaphyxalis Longicornis; experiment: Dry Film Insecticidal Test for Haemaphyxalis Longicornis; type: in vivo; details: 1 ml of 1 ppm acetone solution dried on 9 cm glass petri dish; young ticks; 48 hours of exposure; 25° C.; dead and anguish ticks
Experimental: 1 ml of an acetone solution that was prepared so that the compound was included at a concentration of 1 ppm was added dropwise to a glass petri dish having a diameter of 9 cm. After the addition, the acetone was air-dried for use in the test. About 10 young ticks were added. Then the dish was covered by a plastic film and sealed with a lid. The dish was placed in a constant temperature bath that was set at a temperature of 25° C., at a humidity of 100%, and with a light:dark cycle of 16:8.
After 48 hours of the exposure, the conditions of the ticks were examined and classified into “alive”, “dead (including a moribund condition)”, and “anguish”. The death rates after 48 hours are illustrated in Table 9.
The death rates were calculated as follows: Death Rate (%)=(Number of Dead and Anguish Ticks)/Total Number of Ticks×100

Compound | Death Rate after 48 hours (%)
CN(CC(F)(F)F)C(=O)C(=O)Nc1cccc(C(=O)Nc2c(Cl)cc(C(F)(C(F)(F)F)C(F)(F)F)cc2C(F)(F)F)c1F [6-3] | 100%
CN(CC(F)(F)F)C(=O)C(=O)N(C)c1cccc(C(=O)Nc2c(Br)cc(C(F)(C(F)(F)F)C(F)(F)F)cc2C(F)(F)F)c1F [6-4] | 100%
CN(CC(F)(F)F)C(=O)C(=O)N(C)c1cccc(C(=O)Nc2c(I)cc(C(F)(C(F)(F)F)C(F)(F)F)cc2C(F)(F)F)c1F [6-5] | 100%
CN(CC(F)(F)F)C(=O)C(=O)Nc1cccc(C(=O)Nc2c(Br)cc(C(F)(C(F)(F)F)C(F)(F)F)cc2SC(F)(F)F)c1F [6-6] | 100%
CN(CC(F)(F)F)C(=O)C(=O)Nc1cccc(C(=O)Nc2c(Br)cc(C(F)(C(F)(F)F)C(F)(F)F)cc2[S+]([O-])C(F)(F)F)c1F (stereo not drawn) [6-7] | 100%
CN(CC(F)(F)F)C(=O)C(=O)Nc1cccc(C(=O)Nc2c(Br)cc(C(F)(C(F)(F)F)C(F)(F)F)cc2S(=O)(=O)C(F)(F)F)c1F [6-8] | 100%
CN(CC(F)(F)F)C(=O)C(=O)Nc1cccc(C(=O)Nc2c(I)cc(C(F)(C(F)(F)F)C(F)(F)F)cc2SC(F)(F)F)c1F [6-9] | 100%
CN(CC(F)(F)F)C(=O)C(=O)Nc1cccc(C(=O)Nc2c(I)cc(C(F)(C(F)(F)F)C(F)(F)F)cc2[S+]([O-])C(F)(F)F)c1F (stereo not drawn) [6-10] | 100%
CN(CC(F)(F)F)C(=O)C(=O)Nc1cccc(C(=O)Nc2c(I)cc(C(F)(C(F)(F)F)C(F)(F)F)cc2S(=O)(=O)C(F)(F)F)c1F [6-11] | 100%
CN(CC(F)(F)F)C(=O)C(=O)Nc1cccc(C(=O)Nc2c(Br)cc(C(F)(C(F)(F)F)C(F)(F)F)cc2OC(F)F)c1F [6-12] | 100%
CN(CC(F)(F)F)C(=O)C(=O)N(C)c1cccc(C(=O)Nc2c(Br)cc(C(F)(C(F)(F)F)C(F)(F)F)cc2OC(F)F)c1F [6-13] | 100%
CCN(C)C(=O)C(=O)N(C)c1cccc(C(=O)Nc2c(I)cc(C(F)(C(F)(F)F)C(F)(F)F)cc2OC(F)F)c1F [6-14] | 100%
CCN(C)C(=O)C(=O)N(C)c1cccc(C(=O)Nc2c(I)cc(C(F)(C(F)(F)F)C(F)(F)C(F)(F)F)cc2OC(F)F)c1F (stereo not drawn) [6-15] | 100%
CCN(C)C(=O)C(=O)N(C)c1cccc(C(=O)Nc2c(C)cc(C(F)(C(F)(F)F)C(F)(F)C(F)(F)F)cc2OC(F)F)c1F (stereo not drawn) [6-16] | 100%
CN(CC(F)(F)F)C(=O)C(=O)N(C)c1cccc(C(=O)Nc2c(I)cc(C(F)(C(F)(F)F)C(F)(F)C(F)(F)F)cc2SC(F)(F)F)c1F (stereo not drawn) [6-18] | 100%
CN(CC(F)(F)F)C(=O)C(=O)N(C)c1cccc(C(=O)Nc2c(I)cc(C(F)(C(F)(F)F)C(F)(F)C(F)(F)F)cc2S(=O)(=O)C(F)(F)F)c1F (stereo not drawn) [6-19] | 100%
CCN(C)C(=O)C(=O)N(C)c1cccc(C(=O)Nc2c(I)cc(C(F)(C(F)(F)F)C(F)(F)C(F)(F)F)cc2S(=O)(=O)C(F)(F)F)c1F (stereo not drawn) [6-20] | 100%
CN(CC(F)(F)F)C(=O)C(=O)Nc1cccc(C(=O)Nc2c(Br)cc(C(F)(C(F)(F)F)C(F)(F)F)cc2Br)c1F [Compound No. 4-66] | 100%
CCN(C)C(=O)C(=O)Nc1cccc(C(=O)Nc2c(Br)cc(C(F)(C(F)(F)F)C(F)(F)F)cc2OC(F)F)c1 [Compound No. 5-15] | 100%
CN(CCF)C(=O)C(=O)Nc1cccc(C(=O)Nc2c(Br)cc(C(F)(C(F)(F)F)C(F)(F)F)cc2C(F)(F)F)c1F [Compound No. 6-1, 2-fluoro-3-[N-(2-fluoroethyl)-N-methylaminoxalylamino]-N-[2-bromo-4-heptafluoroisopropyl-6-(trifluoromethyl)phenyl]benzamide] | 100%
CN(CCF)C(=O)C(=O)Nc1cccc(C(=O)Nc2c(I)cc(C(F)(C(F)(F)F)C(F)(F)F)cc2C(F)(F)F)c1F [Compound No. 6-2, 2-fluoro-3-[N-(2-fluoroethyl)-N-methylaminoxalylamino]-N-[2-iodo-4-heptafluoroisopropyl-6-(trifluoromethyl)phenyl]benzamide] | 100%
